Each block holds one compound with its values, some of them ahead of it.
Experiments:
[1] = target: T1, Neuronal acetylcholine receptor; alpha4/beta2 (Homo sapiens, UniProt P17787+P43681); test: Antagonist activity at human alpha4beta2 nAChR expressed in HEK tsA201 cells assessed as inhibition of epibatidine-induced intracellular calcium accumulation at 50 uM after 1 hr by fluorescence assay relative to control; assay type: functional, cell-based; details: HEK293, values are per cent of control
[2] = target: T1, Neuronal acetylcholine receptor; alpha4/beta2; test: Antagonist activity at human alpha4beta2 nAChR expressed in HEK tsA201 cells assessed as inhibition of epibatidine-induced intracellular calcium accumulation after 1 hr by fluorescence assay; assay type: functional, cell-based, HEK293
[3] = target: Neuronal acetylcholine receptor; alpha3/beta4 (Homo sapiens, UniProt P30926+P32297); test: Antagonist activity at human alpha3beta4 nAChR expressed in HEK tsA201 cells assessed as inhibition of epibatidine-induced intracellular calcium accumulation after 1 hr by fluorescence assay; assay type: functional, cell-based, HEK293
Chain of Neuronal acetylcholine receptor; alpha3/beta4 (P30926 whole entry): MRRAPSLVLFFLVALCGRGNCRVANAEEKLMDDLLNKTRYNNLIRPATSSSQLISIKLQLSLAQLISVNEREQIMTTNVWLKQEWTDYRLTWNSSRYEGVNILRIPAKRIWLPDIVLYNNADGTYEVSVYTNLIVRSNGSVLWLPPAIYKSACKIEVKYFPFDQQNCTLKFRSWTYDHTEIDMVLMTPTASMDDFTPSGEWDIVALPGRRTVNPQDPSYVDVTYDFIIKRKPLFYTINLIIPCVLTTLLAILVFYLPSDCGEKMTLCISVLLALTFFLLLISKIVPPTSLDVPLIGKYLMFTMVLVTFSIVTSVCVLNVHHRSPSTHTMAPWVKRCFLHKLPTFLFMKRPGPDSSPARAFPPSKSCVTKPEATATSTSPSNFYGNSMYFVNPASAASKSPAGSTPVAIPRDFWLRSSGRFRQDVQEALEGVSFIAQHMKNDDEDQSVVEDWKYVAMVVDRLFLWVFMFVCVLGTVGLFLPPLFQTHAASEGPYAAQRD
Chain of Neuronal acetylcholine receptor; alpha3/beta4 (P32297 whole entry): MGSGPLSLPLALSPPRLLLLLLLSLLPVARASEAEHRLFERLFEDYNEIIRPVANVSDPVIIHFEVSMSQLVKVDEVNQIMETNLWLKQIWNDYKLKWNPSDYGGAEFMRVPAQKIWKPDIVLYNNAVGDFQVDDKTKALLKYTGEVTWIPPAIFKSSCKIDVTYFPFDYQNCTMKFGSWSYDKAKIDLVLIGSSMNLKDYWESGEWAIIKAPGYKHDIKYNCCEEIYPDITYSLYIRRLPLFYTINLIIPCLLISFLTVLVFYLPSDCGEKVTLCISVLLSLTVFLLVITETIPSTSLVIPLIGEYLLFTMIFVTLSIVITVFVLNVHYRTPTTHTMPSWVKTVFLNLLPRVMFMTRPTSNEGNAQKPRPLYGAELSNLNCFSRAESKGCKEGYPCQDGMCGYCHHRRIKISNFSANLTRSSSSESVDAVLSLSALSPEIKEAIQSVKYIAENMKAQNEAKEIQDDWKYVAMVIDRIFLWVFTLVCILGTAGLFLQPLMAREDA

T1 sequence (P17787 whole entry): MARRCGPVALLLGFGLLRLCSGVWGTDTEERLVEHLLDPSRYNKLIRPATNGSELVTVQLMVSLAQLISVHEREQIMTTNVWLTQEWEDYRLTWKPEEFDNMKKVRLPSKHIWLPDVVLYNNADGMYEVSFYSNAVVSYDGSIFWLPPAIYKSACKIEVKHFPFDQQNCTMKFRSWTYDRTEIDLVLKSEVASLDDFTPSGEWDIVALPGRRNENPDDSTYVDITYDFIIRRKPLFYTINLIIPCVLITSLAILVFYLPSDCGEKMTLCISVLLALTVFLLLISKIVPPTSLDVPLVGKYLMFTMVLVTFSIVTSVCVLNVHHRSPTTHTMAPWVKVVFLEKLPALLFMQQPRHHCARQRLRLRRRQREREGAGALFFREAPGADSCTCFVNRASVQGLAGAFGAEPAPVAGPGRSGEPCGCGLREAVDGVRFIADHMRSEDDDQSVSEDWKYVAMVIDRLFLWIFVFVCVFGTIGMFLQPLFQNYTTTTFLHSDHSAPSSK
T1 sequence (P43681 whole entry): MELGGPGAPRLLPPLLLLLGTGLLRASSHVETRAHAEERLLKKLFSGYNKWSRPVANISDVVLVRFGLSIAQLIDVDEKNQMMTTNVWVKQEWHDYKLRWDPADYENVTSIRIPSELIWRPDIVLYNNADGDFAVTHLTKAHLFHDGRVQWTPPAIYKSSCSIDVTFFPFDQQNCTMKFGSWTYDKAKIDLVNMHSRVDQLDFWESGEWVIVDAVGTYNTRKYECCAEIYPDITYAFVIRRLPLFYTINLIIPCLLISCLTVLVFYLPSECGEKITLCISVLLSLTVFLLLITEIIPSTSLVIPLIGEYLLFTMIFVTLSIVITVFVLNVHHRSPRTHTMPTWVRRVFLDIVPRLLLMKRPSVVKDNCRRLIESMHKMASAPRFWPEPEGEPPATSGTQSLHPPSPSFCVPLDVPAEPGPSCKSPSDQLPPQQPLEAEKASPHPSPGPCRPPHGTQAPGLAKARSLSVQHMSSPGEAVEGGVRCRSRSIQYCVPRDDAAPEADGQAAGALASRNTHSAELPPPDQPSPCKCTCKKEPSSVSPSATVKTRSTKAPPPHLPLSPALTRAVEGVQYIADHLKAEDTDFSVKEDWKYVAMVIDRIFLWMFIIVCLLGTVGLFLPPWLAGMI

Structure (SMILES): Cn1c(=O)c2[nH]c(CN3CCc4ccccc4C3)nc2n(C)c1=O
residual activity [1]: 83.2%

Structure (SMILES): CC(=O)Nc1ccc2c(c1)nc(CN1CCCCC1)n2C
residual activity [1]: 86.2%

Structure (SMILES): Cc1cccc(NC(=O)c2cc(N)ccc2N2CCCCC2)n1
residual activity [1]: 47.7%
IC50 [2]: 14.4 µM
IC50 [3]: 46.3 µM

Structure (SMILES): O=C(O)CCC(=O)Nc1cc(F)ccc1F
residual activity [1]: 83.3%

Structure (SMILES): CC(=O)N1CCN(c2ccc(NC(=O)c3cccnc3)cc2Cl)CC1
residual activity [1]: 103%

Structure (SMILES): O=C(CN1CCN(S(=O)(=O)c2ccc(F)cc2)CC1)Nc1ccccc1F
residual activity [1]: 46.9%
IC50 [2]: 9.8 µM
IC50 [3]: 19.6 µM

Structure (SMILES): O=C(O)c1cc(NCc2cccs2)ccc1N1CCOCC1
residual activity [1]: 49.5%
IC50 [2]: 20.6 µM
IC50 [3]: > 100 µM

Further lines, results first:

residual activity [1]: 59.9%
Structure (SMILES): C=C(C)CN1C(=O)C(O)(CC(=O)c2ccccn2)c2ccccc21 (configuration not stated)

residual activity [1]: 76.2%
Structure (SMILES): O=C(CSc1nnc(-c2ccccn2)o1)Nc1cccc2ccccc12

residual activity [1]: 59.8%
Structure (SMILES): O=C(CN1CCN(c2ccccc2)CC1)NCc1ccco1

residual activity [1]: 51.1%
IC50 [2]: 6.1 µM
IC50 [3]: > 100 µM
Structure (SMILES): C=CCN1C(=O)[C@](O)(CC(=O)c2ccco2)c2cc(Cl)ccc21

residual activity [1]: 71%
Structure (SMILES): COC(=O)c1ccc(N2CCN(C)CC2)c(NC(=O)Cc2ccccc2)c1

residual activity [1]: 74%
Structure (SMILES): Cc1cccc(C(C)C)c1NC(=O)c1ccccc1NS(C)(=O)=O

residual activity [1]: 72.5%
Structure (SMILES): O=C(Nc1ccc(F)cc1)C1CC(=O)n2c(nc3ccccc32)N1 (configuration not stated)
